Columns and labels:
[1] = target: T1, Aldurazyme (laronidase) IDUA activity in bone joint cartilage (Homo sapiens, UniProt P35475); experiment: IDUA assay in bone joint cartilage after i.v. Aldurazyme with or without compound; assay type: in vivo, C57BL/6 male mice; conditions: mice, compound i.v. + Aldurazyme 1.2 mg/kg i.v.
T1 construct: purchased Aldurazyme; host or cells: administered i.v. to C57BL/6 male mice
T1 sequence (P35475 26-653 limits assumed): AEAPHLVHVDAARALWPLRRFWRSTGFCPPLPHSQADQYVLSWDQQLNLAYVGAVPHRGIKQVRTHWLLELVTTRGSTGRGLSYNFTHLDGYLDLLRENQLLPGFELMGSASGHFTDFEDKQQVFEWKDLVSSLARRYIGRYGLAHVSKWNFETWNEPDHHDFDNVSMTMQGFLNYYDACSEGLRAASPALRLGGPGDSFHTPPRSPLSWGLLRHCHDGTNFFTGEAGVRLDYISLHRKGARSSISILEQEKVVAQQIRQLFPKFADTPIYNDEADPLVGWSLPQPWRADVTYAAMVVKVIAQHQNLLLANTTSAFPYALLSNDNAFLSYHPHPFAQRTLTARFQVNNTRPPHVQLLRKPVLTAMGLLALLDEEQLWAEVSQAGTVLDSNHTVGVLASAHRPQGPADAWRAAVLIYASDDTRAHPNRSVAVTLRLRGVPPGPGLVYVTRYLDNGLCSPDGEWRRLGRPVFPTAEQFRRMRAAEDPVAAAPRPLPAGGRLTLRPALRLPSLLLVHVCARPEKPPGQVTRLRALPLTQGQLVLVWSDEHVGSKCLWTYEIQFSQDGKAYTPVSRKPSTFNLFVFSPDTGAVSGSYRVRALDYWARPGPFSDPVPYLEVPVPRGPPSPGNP
Description: (§1) Evaluation of IDUA activity in mouse bone joint cartilage samples obtained from BIO-PCY-19-025 study, where C57BL/6 male mice were administered with 1.2 mg/kg Aldurazyme (i.v. bolus administration) in the presence and absence of Compound A.
(§2) Groups Details: • G1: Vehicle 2 +Aldurazyme (1.2 mg/kg,i.v.,) QD×1(n=6) [vehicle 2:NMP (5%) + Solutol HS-15 (5%) + Normal saline (45%) + PEG-400 (45%)]; • G2: Compound A (5 mg/kg, i.v.) + Aldurazyme (1.2 mg/kg, i.v.) QD x 1 (n=6); • G3: Compound A (10 mg/kg, i.v.) + Aldurazyme (1.2 mg/kg, i.v.) QD x 1 (n=6); • G4: Compound A (20 mg/kg, i.v.) + Aldurazyme (1.2 mg/kg, i.v.) QD x 1 (n=6); and • G5: Naïve Control (n=6).
(§3) Bone joint cartilage samples from mice were collected at indicated time points. Tissues were homogenized in RIPA buffer, protein was extracted was diluted in water. Total protein was estimated using Bradford reagent. 25 µl of tissue homogenate and plasma samples were added to 25 µl of 0.18 mM of 4 MUI substrate and incubated at 37° C. for 30 min. Reaction was terminated using 200 µl of stop solution (0.3 M Glycine and 0.2 M sodium carbonate, pH 10.4). Plate was read at excitation 355 nm and emission 460 nm. […]
(§4) IDUA activity was assessed from 4-MU standard curve. […] Final IDUA enzyme activity was expressed as nmols/mg of protein/hr. Data was analyzed using GraphPad prism software with one way ANOVA followed by Dunnett’s comparison test. […]

[2] = target: T2, Recombinant human α-L-iduronidase protein (Homo sapiens, UniProt P35475); experiment: Differential scanning fluorimetry (DSF) thermal stabilization; assay type: binding
T2 construct: purchased R&D
T2 sequence (P35475 28-653): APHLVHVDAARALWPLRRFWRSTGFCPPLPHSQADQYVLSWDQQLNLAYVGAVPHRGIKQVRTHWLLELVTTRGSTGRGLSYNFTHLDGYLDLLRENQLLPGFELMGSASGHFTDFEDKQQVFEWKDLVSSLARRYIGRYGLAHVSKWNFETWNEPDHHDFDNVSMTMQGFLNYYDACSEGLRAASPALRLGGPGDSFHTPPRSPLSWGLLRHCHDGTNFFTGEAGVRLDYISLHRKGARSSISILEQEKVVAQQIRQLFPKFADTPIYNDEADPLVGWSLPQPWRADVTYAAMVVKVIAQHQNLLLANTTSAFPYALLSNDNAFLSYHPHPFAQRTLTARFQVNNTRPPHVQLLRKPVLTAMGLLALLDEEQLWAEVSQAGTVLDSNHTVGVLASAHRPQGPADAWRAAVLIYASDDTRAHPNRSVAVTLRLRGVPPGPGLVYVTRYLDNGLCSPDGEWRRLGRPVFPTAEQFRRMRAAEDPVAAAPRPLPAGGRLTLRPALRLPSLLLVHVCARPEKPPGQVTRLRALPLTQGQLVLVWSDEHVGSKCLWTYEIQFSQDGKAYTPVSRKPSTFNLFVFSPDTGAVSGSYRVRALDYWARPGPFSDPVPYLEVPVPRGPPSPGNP
In short: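 Purified recombinant human α-L-iduronidase (final 0.75 µM) in 100 mM Hepes, 20 mM MgCl2, pH 7 with SYPRO Orange was heated with compounds (final 1% DMSO). Thermal denaturation was followed by probe fluorescence during a temperature ramp, and stabilization expressed as ΔTm, binned into four categories (A–D).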

[3] = target: T3, Aldurazyme (laronidase) IDUA activity in plasma (Homo sapiens, UniProt P35475); experiment: IDUA assay in plasma after i.v. Aldurazyme with or without compound; assay type: in vivo, C57BL/6 male mice; conditions: mice, compound 5, 10, 20 mg/kg i.v. + Aldurazyme 1.2 mg/kg i.v.
T3 construct: purchased Aldurazyme; host or cells: administered i.v. to C57BL/6 male mice
T3 sequence (P35475 26-653 limits assumed): T1 sequence (P35475 26-653 limits assumed)
Description: as §1, §2
as §3, with “Plasma” for “Bone joint cartilage”, “Plasma samples” for “Tissues”, “were” for “were homogenized in RIPA buffer, protein was extracted was”, “formate buffer and total” for “water. Total”
as §4

CCN(CC(=O)Nc1c(Cl)cccc1Cl)Cc1nc2ccsc2c(=O)[nH]1 [Compound A]
IDUA enzymatic activity in bone joint cartilage [1]: increases IDUA enzymatic activity in a panel of tissues | stabilization of recombinant human IDUA (thermal shift) ([2]; DSF dose response, maximum shift): up to 4 °C | Kd ([2]; thermal shift dose response curve): 22 µM | plasma levels / PK profile of Laronidase [3]: increasing its plasma levels in a dose-dependent manner
